Measurements taken from US8106111B2, “Antimicrobial effect of cycloaliphatic diol antimicrobial agents in coating compositions” (Eastman Chemical Company, priority 2009, dated 2012).

Columns and labels:
[1] = Solubility in aqueous growth media; type: physicochemical
Protocol: Stock solutions were prepared for each isomer in the corresponding growth media at a concentration of 5% w/v (1,4-CHDM) or 2.25% w/v (1,1-CHDM). Serial dilutions were prepared with a dilution ratio of 1:1.3333 such that one log range was covered with nine dilutions.
Final results have been summarized below in Table 9.

[2] = system: challenge organisms (E. coli, Aeromonas sp., SRB isolate, B. subtilis, P. vulgaris, A. niger, C. albicans); assay: Paint challenge test, summary over the challenge organisms; type: cell-based; conditions: additive alone at 0.5-5%, all seven challenge organisms
Protocol: A test of the antimicrobial efficacy of 1,4-CHDM was performed in a paint. Test procedures were generally performed according to those of ASTM D2574-06: Standard Test Method for Resistance of Emulsion Paints in the Container to Attack by Microorganisms.
The paint used for testing was a commercial water-based, interior latex flat wall paint purchased from Wal-Mart. The trade name for the paint was Quik Hide. The color was Off White 26905. A five gallon (18.9 L) container was purchased. The VOC (volatile organic compound) content was listed as <100 g/L (0.8 lbs/gal).
Aliquots of uninoculated paint were distributed in sterile plastic tubes. The volume of paint added was adjusted such that the volume of additives plus the volume of paint would equal 25 mL. […] The percentages shown in Table 2 are weight percentages.
(§1) The concentration of the additives in the paint was adjusted to allow for a final volume of 28 mL per tube after addition of inoculum. All tubes were mixed for 10 minutes on a mechanical shaker set to 75 shakes per minute, and then left stationary at ambient temperature for a minimum of 48 hours.
The bacteria (first five in list), yeast (C. albicans) and fungi (A. niger) in Table 3 were used as challenge organisms for testing the antimicrobial efficacy of the additives contained in the test paint samples. Each organism was isolated from previous naturally contaminated samples of paint, latex, or adhesive. The concentration of each organism (colony-forming unit/gram (cfu/g)) in the test paint samples added as inoculum is also given in Table 3.
(§2) Bacterial cultures were grown at 35° C.±2° C. for a minimum of 96 hours in liquid media. SRB was grown in a thioglycolate broth. All other bacteria and C. albicans were grown in a Trypticase Soy broth with 1% dextrose. C. albicans cultures were grown at 22° C.±2° C. for a minimum of 96 hours. A. niger was grown on the Sabouraud Dextrose Agar (SDA) and in the Trypticase Soy broth with 1% dextrose at 22° C. for 7 to 14 days or until full sporulation (in the case of the agar culture) was achieved. Spores from the plate culture of A. niger were dislodged by rubbing the growth gently with a sterile inoculating loop or removing it with a sterile glass impinger. The spores were added into the broth culture, and then the mixture was filtered through sterile nonabsorbent cotton and adjusted to a spore level of 1.0×10^8 using a hemocytometer.
Challenge organisms were initially acclimated to the paint without additives by adding 10% by volume of individual broth culture to the paint to yield final concentrations of 10^6-10^7 cfu/mL for each bacterial culture to produce paint stock cultures. The A. niger and C. albicans cultures (or suspension) were first poured through nonabsorbent sterile gauze to remove aggregates, then centrifuged. […]

[3] = system: challenge organisms (SRB isolate, B. subtilis, A. niger, C. albicans, P. aeruginosa/C. albicans); assay: Latex dispersion challenge test, summary over the challenge organisms; type: cell-based; conditions: acrylic latex dispersion, additive alone; challenge organisms other than SRB
Protocol: A test of the antimicrobial efficacy of 1,4-CHDM was performed in a latex dispersion. Test procedures were generally conducted according to those of ASTM D2574-06: Standard Test Method for Resistance of Emulsion Latexes in the Container to Attack by Microorganisms.
An antimicrobial agent-free, acrylic latex dispersion with pH of 7.2, viscosity of 200 cps, and solids content of 49.8% was used as the substrate for microbial challenge testing.
Aliquots of the latex dispersion were distributed in sterile plastic tubes. The volume of latex added was adjusted such that the volume of additives plus the volume of latex would equal 25 mL to produce latex test samples.
as §1, with “additives” for “additives in the paint”, “the latex stock cultures discussed in Example 1.” for “inoculum.”
The bacteria (sulfate-reducing bacteria isolate, Bacillus subtilis, and Pseudomonas aeruginosa), yeast (Candida albicans), and fungi (Aspergillus niger) in Table 6 were used as challenge organisms for testing the antimicrobial efficacy of the test latex samples. Each organism was isolated from previous naturally contaminated samples of paint, latex, or adhesive.
as §2, with “Agar” for “Agar (SDA)”
Challenge organisms were initially acclimated to the latex without antimicrobial additives by adding 10% by volume of individual broth culture to latex to yield final concentrations of 10^6-10^7 cfu/mL for each bacterial culture to produce latex stock cultures. The A. niger and C. albicans cultures (or suspension) were first poured through nonabsorbent sterile gauze to remove aggregates then centrifuged. The solids were re-suspended to the desired concentration in latex by estimating the concentration using a hemocytometer. The P. aeruginosa and C. albicans isolates were originally found as a mixed culture in a contaminated product. A mixed latex stock culture containing P. aeruginosa and C. albicans was prepared by adding a portion of the contaminated product to the latex without antimicrobial additives. The latex stock culture samples were incubated at 35° C.±2° C. for bacteria and at 22° C.±2° C. for A. niger and C. albicans. To determine challenge organism concentration, samples of the latex stock cultures were dilution-plated, or for SRB, evaluated using the BACTI-BOTTLE method, as described below.
To the latex test samples, 3 mL of each latex stock culture (diluted as necessary) was added to produce a theoretical 1.0×10^5 to 1.0×10^6 cfu/mL total concentration to yield inoculated latex samples. […]

SMILES	solubility [1]	killing of challenge organisms in paint [2]	efficacy against challenge organisms in latex [3]
OCC1(CO)CCCCC1 [1,1-CHDM, 1,1-cyclohexanedimethanol]	2.25 % (w/v)	–	–
OCC1CCCC(CO)C1 (stereo not shown) [1,3-CHDM]	–	little benefit and no observable dose response	–
OCC1CCC(CO)CC1 (stereo not shown) [1,4-CHDM, 1,4-cyclohexanedimethanol]	–	significant or complete killing of each challenge organism	significant or complete killing of each challenge organism except SRB
O=c1[nH]sc2ccccc12 [BIT, benzisothiazolinone]	–	–	highly efficacious
CCCCNC(=O)OCC#CI [IPBC, 3-iodo-2-propanyl-n-butylcarbamate]	–	–	not found to be efficacious
Cn1sccc1=O [MIT, methylisothiazolinone]	–	–	highly efficacious
CC(O)CO (stereo not shown) [PG, propylene glycol]	–	little benefit and no observable dose response	some ability to inhibit and kill the challenge organisms
CC1(C)C(O)C(C)(C)C1O (stereo not shown) [TMCD, 2,2,4,4-tetramethyl-1,3-cyclobutanediol]	–	killed all challenge organisms at the highest level tested	–
